Calls of active or inactive are those of the source.
Assays:
Assay type in all cases: functional, cell-based
Details in all cases: time 48.0 hrs
[1] = test system: HaCaT; assay: […] of TNF-alpha/IFN-gamma induced MCP-1 expression in human HaCaT cells at 20 uM preincubated for 24 hrs followed by stimulation and measured after […] by ELISA analysis
[2] = test system: HaCaT; assay: Downregulation of TNF-alpha/IFN-gamma induced RANTES expression in human HaCaT cells at 20 uM preincubated for 24 hrs followed by stimulation and measured after […] by ELISA analysis
[3] = test system: HaCaT; assay: Effect on TNF-alpha/IFN-gamma-induced RANTES secretion in human HaCaT cells at 20 uM preincubated for 24 hrs followed by stimulation and measured after […] by ELISA analysis
[4] = test system: HaCaT; assay: Effect on TNF-alpha/IFN-gamma induced- MCP-1 secretion in human HaCaT cells at 1 uM preincubated for 24 hrs followed by stimulation and measured after […] by ELISA analysis
[5] = test system: HaCaT; assay: Effect on TNF-alpha/IFN-gamma-induced RANTES secretion in human HaCaT cells at 1 uM preincubated for 24 hrs followed by stimulation and measured after […] by ELISA analysis

Measured: Activity

C[C@]12CCC(=O)C=C1CC[C@@H]1[C@@H]2[C@@H](O)C[C@@]2(C)[C@H]1CC[C@]2(O)C(=O)CO
active: [1] | [2] | [3]

C[C@@H]1O[C@@H](OCCCCCCC(=O)CCCCCCC(CC(=O)O[C@@H]2[C@H](O)[C@@H](O[C@@H]3O[C@@H](C)[C@H](O[C@@H]4OC[C@@H](O)[C@H](O)[C@H]4O)[C@@H](O)[C@H]3O[C@@H]3OC[C@H](O)[C@H](O)[C@H]3OC3O[C@H](CO)[C@H](O)[C@H](O)[C@H]3O)[C@H](OC(=O)[C@]34CCC(C)(C)C[C@H]3C3=CC[C@@H]5[C@@]6(C)CC[C@H](O[C@@H]7O[C@H](C(=O)O)[C@@H](O)[C@H](O)[C@H]7O)C(C)(C)[C@@H]6CC[C@@]5(C)[C@]3(C)C[C@H]4O)O[C@@H]2C)O[C@H]2O[C@H](C)[C@@H](O)[C@H](O)[C@@H]2O)[C@H](O)[C@H](O)[C@H]1O (stereo partly specified)
active: [1] | [2] | [4] | [5]

C[C@@H]1O[C@@H](OCCCCCCC(=O)CCCCCCC(CC(=O)O[C@@H]2[C@H](O)[C@@H](O[C@@H]3O[C@@H](C)[C@H](O[C@@H]4OC[C@@H](O)[C@H](O)[C@H]4O)[C@@H](O)[C@H]3O[C@@H]3OC[C@H](O)[C@H](O)[C@H]3OC3O[C@H](CO)[C@H](O)[C@H](O)[C@H]3O)[C@H](OC(=O)[C@]34CCC(C)(C)C[C@H]3C3=CC[C@@H]5[C@@]6(C)CC[C@H](O[C@@H]7O[C@H](C(=O)O)[C@H](O)[C@H](O)[C@H]7O)C(C)(C)[C@@H]6CC[C@@]5(C)[C@]3(C)C[C@H]4O)O[C@@H]2C)O[C@H]2O[C@H](C)[C@@H](O)[C@H](O)[C@@H]2O)[C@H](O)[C@H](O)[C@H]1O (stereo partly specified)
active: [1] | [2] | [4] | [5]
